Reference: US20060292255A1, “Pharmaceutical and therapeutic compositions derived from Garcinia mangostana L plant” (priority 2004, published 2006)

Tests used:
cAMP phosphodiesterase = settings: Chairungsrilerd and Takeuchi et al., 1996; cited from earlier work
[1] = test system: L-929 mouse fibroblast cells; assay: Toxicity Study 1: cytotoxicity of serially diluted extract, microscopic scoring; assay type: cell-based; settings: control media/extracts undiluted; triplicate wells
Experimental: The purpose of this study was to evaluate an extract of mangosteen for its level of cytotoxicity in a mammalian system. Accordingly, a serially diluted extract of a 10% mangosteen pericarp test article for cytotoxicity to mammalian cells in culture (L-929 mouse fibroblast cells, from the American Type Culture Collection: CCL-1). The test article, originally a 10% mangosteen preparation) was incubated in an appropriate volume of cell culture medium (Earle's Minimal Essential Medium, E-MEM) in a sterile vessel for 24 to 25 hours at 37 ±1° C. At the end of the extraction period, the extract was decanted from the test article. A series of eight (8) dilutions of the extract was prepared in culture medium in a two-fold dilution sequence. After the dilutions were prepared, the maintenance culture medium was removed from test culture wells and replaced with 1 ml of article test dilutions. […] The cultures were evaluated for cytotoxic effects by microscopic examination at 24, 48, and 72±4 hours of incubation, and the results scored and recorded. […]
Criteria for evaluating cytotoxicity included morphologic changes in cells, such as granulation, crenation, or rounding, and loss of viable cells from the monolayer by lysis or detachment. […] Degrees of toxicity are scored according to the scheme in Table 2: […]

[2] = test system: mammalian cells in culture; assay: Toxicity Study 2: cytotoxicity of serially diluted extract, microscopic scoring; assay type: cell-based; settings: control media/extracts undiluted
Experimental: The purpose of this study was to evaluate a serially diluted extract of a 40% mangosteen pericarp test article for cytotoxicity to mammalian cells in culture. The test article was incubated in an appropriate volume of E-MEM in a sterile vessel for 24 to 25 hours at 37 f 1° C. After measures were taken to create a clear supernatant, a series of eight (8) dilutions of the extract were prepared in E-MEM in a two-fold dilution sequence. After the dilutions were prepared, the maintenance culture media was removed from test culture wells and replaced with 1 ml of test media dilutions in triplicate wells. The positive control media, test article extract, and control extracts were added at the same time to the culture plate in triplicate wells. The plates were incubated for 72 hours at 37±1° C. in a humidified atmosphere of 5±1% CO2 in air. The cultures were evaluated for cytotoxic effects by microscopic examination at 24,48 and 72±4 hours of incubation and the results scored and recorded. After the 24 hour extraction the liquid was transferred to a 50 mL conical tube and centrifuged for 10 minutes at 3000 rpm. A small pellet of powder created by the separation was discarded, the resultant supernatant was clear with a light brown color and a pH of 7.5.
Criteria for evaluating cytotoxicity included morphologic changes in cells, such as granulation, crenation, or rounding, and loss of viable cells from the monolayer by lysis or detachment. The validity of the test requires that negative control cultures maintain a healthy normal appearance throughout the duration of the test. Degrees of toxicity are scored as in Table 1, above: […]

COX 1 = COX 1 (Homo sapiens, UniProt P23219); settings: Nakatani et al., 2002, 2004; cited from earlier work
Chain of COX 1 (P23219 24-599): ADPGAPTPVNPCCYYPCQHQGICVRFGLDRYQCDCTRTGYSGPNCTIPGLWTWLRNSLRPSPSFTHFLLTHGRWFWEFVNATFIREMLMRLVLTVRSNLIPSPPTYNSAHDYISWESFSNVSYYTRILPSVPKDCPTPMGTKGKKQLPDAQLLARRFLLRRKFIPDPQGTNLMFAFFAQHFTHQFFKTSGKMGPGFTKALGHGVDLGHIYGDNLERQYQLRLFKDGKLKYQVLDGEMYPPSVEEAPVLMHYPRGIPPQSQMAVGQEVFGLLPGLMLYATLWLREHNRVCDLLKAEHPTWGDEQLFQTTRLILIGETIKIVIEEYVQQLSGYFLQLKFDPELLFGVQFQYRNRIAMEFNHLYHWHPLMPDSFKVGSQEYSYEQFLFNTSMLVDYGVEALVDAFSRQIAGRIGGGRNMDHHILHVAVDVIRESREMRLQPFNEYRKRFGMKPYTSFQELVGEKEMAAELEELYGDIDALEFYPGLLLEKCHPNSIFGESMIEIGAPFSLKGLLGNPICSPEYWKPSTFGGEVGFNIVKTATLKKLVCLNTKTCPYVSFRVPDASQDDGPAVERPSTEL

serotonin receptors = settings: Chairungsrilerd et al., 1996, 1998; cited from earlier work
DNA topoisomerase = settings: Tosa et al., 1997; cited from earlier work

For `COc1c(O)cc2oc3cc4c(c(O)c3c(=O)c2c1CC=C(C)C)CC(O)C(C)(C)O4` (centres unmarked) [Mangostanol], the “inhibition of cAMP phosphodiesterase” value (cAMP phosphodiesterase) is given as “strong inhibition”.

In the case of `[Cl][Cd][Cl]` [Positive Control, CdCl2], the “Cytotoxicity Scores at 72 Hr” value [1] was 4/4/4, the “Cytoxicity Scores 24 Hr” value [2] was 4/4/4 and the “Cytoxicity Scores 48 Hr” value [2] was 4/4/4. For the same molecule, the “Cytoxicity Scores 72 Hr” value [2] was 4/4/4.

In the case of `CC(C)=CCc1c(O)cc2oc3cc(O)c(O)c(CC=C(C)C)c3c(=O)c2c1O` [gamma-mangostin], the “inhibition of the activity of cyclooxygenase COX 1” value (COX 1) is given as “directly inhibit the activity”, the “action on serotonin receptors” value (serotonin receptors) is given as “antagonist” and the “inhibition of DNA topoisomerase” value (DNA topoisomerase) is given as “inhibits”.
